How the values were obtained:
[1] = Measurement of maximum absorption wavelength of colorant or colorant mixture in chloroform solution; assay type: physicochemical; details: colorant mixture in chloroform, 1×10^−6 mol/L, 10 mm cell, 23° C.
Description: The obtained compound F-3 was dissolved in chloroform (concentration: 1×10^−6 mol/L), and the maximum absorption wavelength […] and molar absorption coefficient (c) of the compound F-3 was measured using a cell having an optical path length of 10 mm and using a spectrophotometer UV-1800PC (manufactured by Shimazu Corporation). The maximum absorption wavelength λmax of the compound F-3 was 679 nm, and the molar absorption coefficient (s) was 355000. The obtained compound F-38 was dissolved in chloroform (concentration: 1×10^−6 mol/L), and the maximum absorption wavelength […] and molar absorption coefficient (ε) of the compound F-38 was measured using a cell having an optical path length of 10 mm and using a spectrophotometer UV-1800PC (manufactured by Shimadzu Corporation). The maximum absorption wavelength λmax of the compound F-38 was 590 nm, and the molar absorption coefficient (ε) was 204000. The obtained compound F-51 was dissolved in chloroform (concentration: 1×10^−6 mol/L), and the maximum absorption wavelength λmax and molar absorption coefficient (ε) of the compound F-51 was measured using a cell having an optical path length of 10 mm and using a spectrophotometer UV-1800 (PC (manufactured by Shimadzu Corporation). The maximum absorption wavelength λmax of the compound F-51 was 589 nm, and the molar absorption coefficient (ε) was 244000. The obtained compound F-75 was dissolved in chloroform (concentration: 1×10^−6 mol/L), and the maximum absorption wavelength λmax and molar absorption coefficient (ε) of the compound F-75 was measured using a cell having an optical path length of 10 mm and using a spectrophotometer t-UV-1800PC (manufactured by Shimadzu Corporation). The maximum absorption wavelength λmax of the compound F-75 was 589 nm, and the molar absorption coefficient (ε) was 221000.

[2] = Evaluation of solubility of colorant mixture; assay type: physicochemical; details: for Evaluation Solubility: added to toluene at 23° C., stirred for 1 hour, visually observed; for solubility in toluene: 23° C.
Description: Solubility of the colorant mixture shown in the following table in […] was evaluated. Specifically, the colorant mixture was added to toluene at 23° C., stirred for 1 hour, and the presence or absence of dissolution of the colorant was visually observed and the solubility was evaluated based on the following evaluation standard.

Structure (SMILES) | λmax (nm) [1] [nm] | Evaluation Solubility [2] | solubility in toluene [2]
CC1=CC(C)=N/C1=C1\C(=O)C(c2[nH]c(C)cc2C)=C1O [Compound A-3] | 498 | D (solubility was less than 0.1% by mass) | less than 0.1 % by mass
CCN(CC)c1ccc(C2=C([O-])C(=C3C=CC(=[N+](CC)CC)C=C3)C2=O)cc1 [Compound A-21] | 634 | D (solubility was less than 0.1% by mass) | less than 01 % by mass
CCN(CC)c1ccc(C2=C([O-])/C(=C3/C=CC(=[N+](CC)CC)C=C3NC(=O)C(C)(C)CC)C2=O)c(NC(=O)C(C)(C)CC)c1 [Compound A-24] | 673 | C (solubility was 0.1% by mass or more and less than 0.5% by mass) | less than 0.5 % by mass

— patent US12180372B2, “Resin composition, optical filter, image display device, solid-state imaging element, and colorant mixture” (FUJIFILM Corporation, priority 2018, dated 2024)
